According to the NIST ThermoML archive (doi:10.1016/j.jct.2013.11.036):

Experiment: mn = molality of the nth substance listed, in mol/kg
Conditions: Liquid

CCCO [propan-1-ol] + O
Conditions	mass density [kg/m3]
292.05 K, 101 kPa, Pycnometric method, m1 = 0.869	991.42
293.45 K, 101 kPa, Pycnometric method, m1 = 2.936	980.4
294.85 K, 101 kPa, Pycnometric method, m1 = 56.35	851.23
295.15 K, 101 kPa, Pycnometric method, m1 = 0.869	990.4
298.15 K, 101 kPa, Pycnometric method, m1 = 0.869	989.5
298.15 K, 101 kPa, Pycnometric method, m1 = 2.936	978.54
298.15 K, 5000 kPa, Constant-volume piezometry, m1 = 0.869	990.5
298.15 K, 5000 kPa, Constant-volume piezometry, m1 = 2.465	980.7
298.15 K, 10000 kPa, Constant-volume piezometry, m1 = 0.869	992.6
298.15 K, 10000 kPa, Constant-volume piezometry, m1 = 2.465	982.7
298.15 K, 20000 kPa, Constant-volume piezometry, m1 = 0.869	996.7
298.15 K, 20000 kPa, Constant-volume piezometry, m1 = 2.465	986.6
298.15 K, 30000 kPa, Constant-volume piezometry, m1 = 0.869	1000.6
298.15 K, 30000 kPa, Constant-volume piezometry, m1 = 2.465	990.3
298.15 K, 40000 kPa, Constant-volume piezometry, m1 = 0.869	1004.4
298.15 K, 40000 kPa, Constant-volume piezometry, m1 = 2.465	993.8
302.13 K, 2844 kPa, Constant-volume piezometry, m1 = 14.38	910.6
302.13 K, 7747 kPa, Constant-volume piezometry, m1 = 14.38	913.1
302.13 K, 13631 kPa, Constant-volume piezometry, m1 = 14.38	915.8
302.8 K, 101 kPa, Pycnometric method, m1 = 2.531	974.74
302.8 K, 101 kPa, Pycnometric method, m1 = 7.407	941.25
302.8 K, 101 kPa, Pycnometric method, m1 = 14.38	908.75
303.15 K, 5000 kPa, Constant-volume piezometry, m1 = 0.869	988.8
303.15 K, 5000 kPa, Constant-volume piezometry, m1 = 2.465	978.4
303.15 K, 10000 kPa, Constant-volume piezometry, m1 = 0.869	990.9
303.15 K, 10000 kPa, Constant-volume piezometry, m1 = 2.465	980.5
303.15 K, 20000 kPa, Constant-volume piezometry, m1 = 0.869	995
303.15 K, 20000 kPa, Constant-volume piezometry, m1 = 2.465	984.4
303.15 K, 30000 kPa, Constant-volume piezometry, m1 = 0.869	998.9
303.15 K, 30000 kPa, Constant-volume piezometry, m1 = 2.465	988
303.15 K, 40000 kPa, Constant-volume piezometry, m1 = 0.869	1002.7
303.15 K, 40000 kPa, Constant-volume piezometry, m1 = 2.465	991.6
303.2 K, 3334 kPa, Constant-volume piezometry, m1 = 2.531	975.9
303.2 K, 7708 kPa, Constant-volume piezometry, m1 = 2.531	977.7
304.65 K, 101 kPa, Pycnometric method, m1 = 2.936	975.69
306 K, 101 kPa, Pycnometric method, m1 = 56.35	842.18
307.99 K, 2942 kPa, Constant-volume piezometry, m1 = 56.35	872.9
307.99 K, 14220 kPa, Constant-volume piezometry, m1 = 56.35	880.4
308.55 K, 101 kPa, Pycnometric method, m1 = 0.869	986.52
312.07 K, 2844 kPa, Constant-volume piezometry, m1 = 7.407	936.5
312.07 K, 6865 kPa, Constant-volume piezometry, m1 = 7.407	938.7
312.07 K, 12160 kPa, Constant-volume piezometry, m1 = 7.407	941.1
312.65 K, 101 kPa, Pycnometric method, m1 = 2.531	969.82
312.65 K, 101 kPa, Pycnometric method, m1 = 7.407	934.48
312.65 K, 101 kPa, Pycnometric method, m1 = 14.38	901.37
313.75 K, 101 kPa, Pycnometric method, m1 = 2.936	971.27
320.75 K, 101 kPa, Pycnometric method, m1 = 56.35	829.47
322.35 K, 101 kPa, Pycnometric method, m1 = 2.936	966.49
323.15 K, 5000 kPa, Constant-volume piezometry, m1 = 0.869	980.8
323.15 K, 5000 kPa, Constant-volume piezometry, m1 = 2.465	968.2
323.15 K, 10000 kPa, Constant-volume piezometry, m1 = 0.869	982.9
323.15 K, 10000 kPa, Constant-volume piezometry, m1 = 2.465	970.3
323.15 K, 20000 kPa, Constant-volume piezometry, m1 = 0.869	986.9
323.15 K, 20000 kPa, Constant-volume piezometry, m1 = 2.465	974.3
323.15 K, 30000 kPa, Constant-volume piezometry, m1 = 0.869	990.8
323.15 K, 30000 kPa, Constant-volume piezometry, m1 = 2.465	978
323.15 K, 40000 kPa, Constant-volume piezometry, m1 = 0.869	994.5
323.15 K, 40000 kPa, Constant-volume piezometry, m1 = 2.465	981.6
326.05 K, 101 kPa, Pycnometric method, m1 = 2.531	962.17
326.05 K, 101 kPa, Pycnometric method, m1 = 7.407	924.78
326.05 K, 101 kPa, Pycnometric method, m1 = 14.38	890.78
331.05 K, 101 kPa, Pycnometric method, m1 = 56.35	820.42
340.85 K, 101 kPa, Pycnometric method, m1 = 2.531	952.6
340.85 K, 101 kPa, Pycnometric method, m1 = 7.407	913.42
340.85 K, 101 kPa, Pycnometric method, m1 = 14.38	878.68
342.49 K, 2353 kPa, Constant-volume piezometry, m1 = 14.38	877.9
342.49 K, 6159 kPa, Constant-volume piezometry, m1 = 14.38	880.3
342.49 K, 10199 kPa, Constant-volume piezometry, m1 = 14.38	882.7
342.49 K, 14455 kPa, Constant-volume piezometry, m1 = 14.38	885.4
343.48 K, 2942 kPa, Constant-volume piezometry, m1 = 7.407	913.7
343.48 K, 6767 kPa, Constant-volume piezometry, m1 = 7.407	915.8
343.48 K, 12690 kPa, Constant-volume piezometry, m1 = 7.407	919
343.94 K, 2353 kPa, Constant-volume piezometry, m1 = 2.531	950.6
343.94 K, 6374 kPa, Constant-volume piezometry, m1 = 2.531	952.5
343.94 K, 10787 kPa, Constant-volume piezometry, m1 = 2.531	954.3
347.63 K, 3668 kPa, Constant-volume piezometry, m1 = 56.35	838
347.63 K, 10120 kPa, Constant-volume piezometry, m1 = 56.35	843.1
348.15 K, 5000 kPa, Constant-volume piezometry, m1 = 0.869	967.9
348.15 K, 5000 kPa, Constant-volume piezometry, m1 = 2.465	952.7
348.15 K, 10000 kPa, Constant-volume piezometry, m1 = 0.869	970
348.15 K, 10000 kPa, Constant-volume piezometry, m1 = 2.465	954.9
348.15 K, 20000 kPa, Constant-volume piezometry, m1 = 0.869	974.1
348.15 K, 20000 kPa, Constant-volume piezometry, m1 = 2.465	959.1
348.15 K, 30000 kPa, Constant-volume piezometry, m1 = 0.869	978
348.15 K, 30000 kPa, Constant-volume piezometry, m1 = 2.465	963.1
348.15 K, 40000 kPa, Constant-volume piezometry, m1 = 0.869	981.8
348.15 K, 40000 kPa, Constant-volume piezometry, m1 = 2.465	966.8
349.85 K, 101 kPa, Pycnometric method, m1 = 2.531	946.25
349.85 K, 101 kPa, Pycnometric method, m1 = 7.407	906.29
349.85 K, 101 kPa, Pycnometric method, m1 = 14.38	870.71
352.05 K, 101 kPa, Pycnometric method, m1 = 56.35	801.03
373.15 K, 5000 kPa, Constant-volume piezometry, m1 = 0.869	951.6
373.15 K, 5000 kPa, Constant-volume piezometry, m1 = 2.465	934.2
373.15 K, 10000 kPa, Constant-volume piezometry, m1 = 0.869	953.9
373.15 K, 10000 kPa, Constant-volume piezometry, m1 = 2.465	937
373.15 K, 20000 kPa, Constant-volume piezometry, m1 = 0.869	958.3
373.15 K, 20000 kPa, Constant-volume piezometry, m1 = 2.465	941.3
373.15 K, 30000 kPa, Constant-volume piezometry, m1 = 0.869	962.4
373.15 K, 30000 kPa, Constant-volume piezometry, m1 = 2.465	945.7
373.15 K, 40000 kPa, Constant-volume piezometry, m1 = 0.869	966.3
373.15 K, 40000 kPa, Constant-volume piezometry, m1 = 2.465	949.7
